We go through 17 compounds from patent publication US8871777B2, “Phenylpyrimidone compounds, the pharmaceutical compositions, preparation methods and uses thereof” (Topharman Shanghai Co., Ltd., priority 2008, dated 2014).

Structures are written as SMILES.

For one assay, the target named is T1, PDE6 in bovine retina (Bos taurus, UniProt P11541+P23439).
T1 construct: obtained by suitably treating various tissues and separating the enzyme with FPLC; from tissue; host or cells: bovine retina
T1 sequence (P11541 2-856 limits assumed): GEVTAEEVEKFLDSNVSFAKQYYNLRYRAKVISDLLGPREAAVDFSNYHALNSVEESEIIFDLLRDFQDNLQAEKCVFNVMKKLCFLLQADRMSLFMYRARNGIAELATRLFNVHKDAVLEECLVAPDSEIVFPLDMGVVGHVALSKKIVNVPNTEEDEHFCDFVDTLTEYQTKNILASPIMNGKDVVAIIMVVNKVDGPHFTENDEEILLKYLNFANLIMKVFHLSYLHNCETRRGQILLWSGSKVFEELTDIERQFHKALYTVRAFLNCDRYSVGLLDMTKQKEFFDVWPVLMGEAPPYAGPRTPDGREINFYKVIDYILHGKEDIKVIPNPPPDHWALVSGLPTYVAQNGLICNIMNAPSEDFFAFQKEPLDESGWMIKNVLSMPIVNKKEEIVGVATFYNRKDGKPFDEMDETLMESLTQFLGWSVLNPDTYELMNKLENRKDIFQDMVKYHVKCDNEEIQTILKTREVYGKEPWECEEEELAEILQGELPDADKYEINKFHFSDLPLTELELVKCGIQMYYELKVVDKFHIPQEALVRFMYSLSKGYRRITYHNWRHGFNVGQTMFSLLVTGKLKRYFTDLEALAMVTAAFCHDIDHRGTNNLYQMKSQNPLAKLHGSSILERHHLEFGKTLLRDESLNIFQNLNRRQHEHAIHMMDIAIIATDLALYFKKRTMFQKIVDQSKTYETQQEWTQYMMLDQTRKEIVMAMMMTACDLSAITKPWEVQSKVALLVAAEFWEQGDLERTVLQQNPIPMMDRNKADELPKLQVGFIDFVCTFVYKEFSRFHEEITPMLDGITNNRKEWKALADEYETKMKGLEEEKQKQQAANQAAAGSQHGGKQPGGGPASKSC
T1 sequence (P23439 2-850 limits assumed): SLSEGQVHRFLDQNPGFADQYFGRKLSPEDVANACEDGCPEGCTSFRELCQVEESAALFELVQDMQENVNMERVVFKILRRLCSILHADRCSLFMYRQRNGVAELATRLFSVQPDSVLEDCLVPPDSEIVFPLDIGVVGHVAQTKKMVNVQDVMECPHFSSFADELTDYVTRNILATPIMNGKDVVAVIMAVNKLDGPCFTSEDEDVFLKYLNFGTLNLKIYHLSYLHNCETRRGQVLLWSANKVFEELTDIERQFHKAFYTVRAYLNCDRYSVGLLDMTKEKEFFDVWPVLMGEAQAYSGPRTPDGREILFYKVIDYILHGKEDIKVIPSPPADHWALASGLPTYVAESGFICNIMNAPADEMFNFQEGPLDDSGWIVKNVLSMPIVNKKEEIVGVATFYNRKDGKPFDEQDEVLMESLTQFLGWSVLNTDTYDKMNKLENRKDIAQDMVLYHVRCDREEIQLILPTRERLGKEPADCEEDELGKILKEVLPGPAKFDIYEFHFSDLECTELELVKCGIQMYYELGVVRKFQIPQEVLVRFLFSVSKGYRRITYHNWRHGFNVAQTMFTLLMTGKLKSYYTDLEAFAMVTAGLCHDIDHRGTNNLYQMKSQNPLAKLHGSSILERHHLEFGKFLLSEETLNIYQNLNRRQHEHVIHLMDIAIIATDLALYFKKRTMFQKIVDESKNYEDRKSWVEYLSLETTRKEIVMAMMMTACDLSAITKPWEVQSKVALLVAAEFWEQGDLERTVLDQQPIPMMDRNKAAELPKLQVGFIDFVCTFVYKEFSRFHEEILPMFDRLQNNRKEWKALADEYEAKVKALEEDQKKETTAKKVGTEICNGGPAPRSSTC
Briefly: PDE6 enzyme inhibition activity test (scintillation proximity). It counts as biochemical. To be noted: for IC50: PDE6 separated from bovine retina, read-out: PDE6 IC50; for PDE6 IC50/PDE5 IC50: selectivity, ratio of IC50 PDE6/IC50 PDE5. How it is done:
(§1) More specifically, PDE5 and PDE3 were obtained from human blood platelet, and PDE6 was separated from bovine retina. Upon enzyme was separated out, the enzyme inhibition activity test would be carried out immediately. The said enzyme inhibition activity test was performed by directly detecting the scintillation proximity of AMP/GMP using TRKQ7100 and TRKQ7090 kits, which was generally as follows. In the presence of different concentrations of inhibitor and a small amount of substrate, 10 μl of buffer (50 mM Tris/HCl PH 7.5, 8.3 mM MgCl2, 1.7 mM EGTA) was added, and then water was added to a final volume of 100 μl. The reaction was initiated with a fixed amount of enzyme, incubated at 30° C. for 30 min, and then quenched with 50 μl of yttrium silicate beads comprising zinc sulphate. After shaken for 20 min, the reaction mixture was put in dark and settled for 30 min, and then readed on a BECKMAN LS6500 MULTI-PURPOSE SCINTILLATION COUNTER.
(In general: In a scintillation proximity assay essentially only radioactivity close to the scintillant gives light.)

Assay [1] deals with T2, human blood platelet PDE5 (Homo sapiens, UniProt O76074).
T2 construct: obtained by suitably treating various tissues and separating the enzyme with FPLC; from tissue; host or cells: human blood platelets
Kind of assay: PDE5 enzyme inhibition activity test (scintillation proximity). It counts as biochemical. The protocol:
as §1

Regarding `CCCOc1ccc(C(=O)N2CCCCC2)cc1-c1nc(CC)c(CC)c(=O)[nH]1` [Example 60, (piperid-1-yl)(3-(4,5-diethyl-1,6-dihydro-6-oxopyrimidin-2-yl)-4-n-propoxy)benzophenone], the IC50 – broadly, the concentration at which inhibition is half-maximal – at PDE6 in bovine retina stood at 8.19 nM; in assay [1] (PDE5 table), 2.04 nM; in assay [1] (as repeated in the PDE6 table) it was 2.04 nM. Also, the “PDE6 IC50/PDE5 IC50” value on PDE6 in bovine retina is listed as 4.0.
`CCCOc1ccc(S(=O)(=O)NC(C)C(=O)OCC)cc1-c1nc(CC)c(CC)c(=O)[nH]1` (centres unmarked) [Example 123, ethyl 2-(N-(3-(4,5-diethyl-1,6-dihydro-6-oxopyrimidin-2-yl)-4-n-propoxyphenyl)sulfonyl)aminopropionate]: the half-inhibitory concentration (IC50) on PDE6 in bovine retina came out at 13.3 nM; in assay [1] (PDE5 table), 0.49 nM; in assay [1] (as repeated in the PDE6 table), 0.49 nM. Besides, the “PDE6 IC50/PDE5 IC50” value at PDE6 in bovine retina was found to be 27.3.
As to `CCCOc1ccc(S(=O)(=O)NC(CC(N)=O)C(=O)O)cc1-c1nc(CC)c(CC)c(=O)[nH]1` (centres unmarked) [Example 126, 2-(N-(3-(4,5-diethyl-1,6-dihydro-6-oxopyrimidin-2-yl)-4-n-propoxyphenyl)sulfonyl)amino-3-aminoformylpropionic acid], the IC50 was found to be 54.9 nM on PDE6 in bovine retina, 1.79 nM in assay [1] (PDE5 table) and 1.79 nM in assay [1] (as repeated in the PDE6 table). In addition, the “PDE6 IC50/PDE5 IC50” value at PDE6 in bovine retina is on record as 30.7.
On to `CCCOc1ccc(S(=O)(=O)NCCCS(=O)(=O)O)cc1-c1nc(CC)c(CC)c(=O)[nH]1` [Example 124, 3-(N-(3-(4,5-diethyl-1,6-dihydro-6-oxopyrimidin-2-yl)-4-n-propoxyphenyl)sulfonyl)aminopropylsulfonic acid], for which the results for the half-maximal inhibitory concentration (IC50) (on PDE6 in bovine retina; in assay [1] (PDE5 table); in assay [1] (as repeated in the PDE6 table)) were 3.76 nM, 0.13 nM and 0.13 nM, respectively. Further, the “PDE6 IC50/PDE5 IC50” value at PDE6 in bovine retina is on record as 28.6.
`CCCOc1ccc(NC(=O)C(N)=O)cc1-c1nc(CC)c(CC)c(=O)[nH]1` [Example 114, N^1-(3-(4,5-diethyl-1,6-dihydro-6-oxopyrimidin-2-yl)-4-n-propoxyphenyl)oxalamide]: the IC50 on PDE6 in bovine retina was found to be 18.7 nM; in assay [1] (PDE5 table) it was 0.83 nM; in assay [1] (as repeated in the PDE6 table), 0.83 nM. In addition, the “PDE6 IC50/PDE5 IC50” value on PDE6 in bovine retina is on record as 10.53.
For the compound `CCCOc1ccc(S(=O)(=O)N(CCO)CCN2CCOCC2)cc1-c1nc(CC)c(CC)c(=O)[nH]1` [Example 135, 5,6-diethyl-2-(2-n-propoxy-5-(N-(2-morpholinylethyl)-N-(2-hydroxyethyl)aminosulfonyl)phenyl)pyrimid-4(3H)-one], the IC50 at PDE6 in bovine retina was determined as 9.66 nM; in assay [1] (PDE5 table), 1.01 nM; in assay [1] (as repeated in the PDE6 table), 1.01 nM. Further, the “PDE6 IC50/PDE5 IC50” value on PDE6 in bovine retina is on record as 9.6.
`CCCOc1ccc(C(=O)NC(Cc2ccccc2)C(=O)OC)cc1-c1nc(CC)c(CC)c(=O)[nH]1` (centres unmarked) [Example 150, methyl 2-(3-(4,5-diethyl-1,6-dihydro-6-oxopyrimidin-2-yl)-4-n-propoxybenzamido)-3-phenylpropionate]: the figures for the IC50 (on PDE6 in bovine retina; in assay [1] (PDE5 table); in assay [1] (as repeated in the PDE6 table)) were 2.78 nM, 0.52 nM and 0.52 nM, respectively. Also, the “PDE6 IC50/PDE5 IC50” value at PDE6 in bovine retina was 5.3.
As to `CCCOc1ccc(C(=O)NC(C)C(=O)N2CCN(C)CC2)cc1-c1nc(CC)c(CC)c(=O)[nH]1` (stereo not drawn) [Example 154, 3-(4,5-diethyl-1,6-dihydro-6-oxopyrimidin-2-y1)-N-(1-(4-methylpiperazin-l-yl)-1-oxopropan-2-y1)-4-n-propoxybenzamide], the results for the 50% inhibitory concentration (IC50) (at PDE6 in bovine retina; in assay [1] (PDE5 table); in assay [1] (as repeated in the PDE6 table)) were 37.9 nM, 0.4 nM and 0.4 nM, respectively. Besides, the “PDE6 IC50/PDE5 IC50” value on PDE6 in bovine retina is 94.6.
Regarding `CCCOc1ccc(NC(=O)CCCNC(C)=O)cc1-c1nc(CC)c(CC)c(=O)[nH]1` [Example 107, 4-Acetamido-N-(3-(4,5-diethyl-1,6-dihydro-6-oxopyrimidin-2-yl)-4-n-propoxyphenyl)butyramide], the IC50 is 6.42 nM at PDE6 in bovine retina, 0.92 nM in assay [1] (PDE5 table) and 0.92 nM in assay [1] (as repeated in the PDE6 table). In addition, the “PDE6 IC50/PDE5 IC50” value on PDE6 in bovine retina is on record as 22.64.
With `CCCOc1ccc(NC(=O)C(F)(F)F)cc1-c1nc(CC)c(CC)c(=O)[nH]1` [Example 98, N-(3-(4,5-diethyl-1,6-dihydro-6-oxopyrimidin-2-yl)-4-n-propoxyphenyl)-2,2,2-trifluoroacetamide], the values for the IC50 (at PDE6 in bovine retina; in assay [1] (PDE5 table); in assay [1] (as repeated in the PDE6 table)) were 10.4 nM, 2.77 nM and 2.77 nM, respectively. Besides, the “PDE6 IC50/PDE5 IC50” value on PDE6 in bovine retina was 3.77.
As for `CCCOc1ccc(C(=O)N2CCCC2C(=O)OC)cc1-c1nc(CC)c(CC)c(=O)[nH]1` (centres unmarked) [Example 139], the IC50 at PDE6 in bovine retina was 7.82 nM; in assay [1] (PDE5 table), 0.61 nM; in assay [1] (as repeated in the PDE6 table), 0.61 nM. For the same compound, at PDE6 in bovine retina, the “PDE6 IC50/PDE5 IC50” value is 12.8.
For the compound `CCCOc1ccc(C(=O)NCCCS(=O)(=O)O)cc1-c1nc(CC)c(CC)c(=O)[nH]1` [Example 169, 3-(3-(4,5-diethyl-1,6-dihydro-6-oxopyrimidin-2-yl)-4-n-propoxybenzamido)propyl-1-sulfonic acid], the IC50 on PDE6 in bovine retina is 10.4 nM; in assay [1] (PDE5 table), 0.11 nM; in assay [1] (as repeated in the PDE6 table), 0.11 nM. Also, at PDE6 in bovine retina, the “PDE6 IC50/PDE5 IC50” value came out at 91.3.
Regarding `CCCOc1ccc(C(=O)N2CCCC2C(N)=O)cc1-c1nc(CC)c(CC)c(=O)[nH]1` (centres unmarked) [Example 61], the figures for the IC50 (at PDE6 in bovine retina; in assay [1] (PDE5 table); in assay [1] (as repeated in the PDE6 table)) were 29.1 nM, 1.93 nM and 1.93 nM, respectively. The “PDE6 IC50/PDE5 IC50” value on PDE6 in bovine retina is 15.1.
On to `CCCOc1ccc(S(=O)(=O)N2CCCC2C(=O)O)cc1-c1nc(CC)c(CC)c(=O)[nH]1` (centres unmarked) [Example 32], for which the concentration for half-maximal inhibition (IC50) at PDE6 in bovine retina is 40.6 nM; in assay [1] (PDE5 table), 2.02 nM; in assay [1] (as repeated in the PDE6 table), 2.02 nM. On PDE6 in bovine retina, the “PDE6 IC50/PDE5 IC50” value came to 20.1.
In the case of `CCCOc1ccc(NC(=O)C2CCCCC2)cc1-c1nc(CC)c(CC)c(=O)[nH]1` [Example 55, N-(3-(1,6-dihydro-4,5-diethyl-6-oxopyrimidin-2-yl)-4-propoxyphenyl)cyclohexamide], the 50% inhibitory concentration (IC50) on PDE6 in bovine retina was 20.1 nM; in assay [1] (PDE5 table), 0.92 nM; in assay [1] (as repeated in the PDE6 table), 0.93 nM. Also, the “PDE6 IC50/PDE5 IC50” value on PDE6 in bovine retina is 21.8.
As to `CCCOc1ccc(NC(=O)CC(=O)OCC)cc1-c1nc(CC)c(CC)c(=O)[nH]1` [Example 102, ethyl N-(3-(4,5-diethyl-1,6-dihydro-6-oxopyrimidin-2-yl)-4-n-propoxyphenyl)aminoformylacetate], the IC50 on PDE6 in bovine retina was 24.6 nM; in assay [1] (PDE5 table) it was 4.61 nM; in assay [1] (as repeated in the PDE6 table), 4.61 nM. At PDE6 in bovine retina, the “PDE6 IC50/PDE5 IC50” value is on record as 5.33.
Regarding `CCCOc1ccc(S(=O)(=O)NCCN2CCOCC2)cc1-c1nc(CC)c(CC)c(=O)[nH]1` [Example 31, 5,6-diethyl-2-{2-n-propoxy-5-[N-(2-morpholinylethyl)aminosulfonyl)phenyl}pyrimid-4(3H)-one], the IC50 is 52.8 nM on PDE6 in bovine retina, 1.36 nM in assay [1] (PDE5 table) and 1.36 nM in assay [1] (as repeated in the PDE6 table). The “PDE6 IC50/PDE5 IC50” value at PDE6 in bovine retina came to 38.8.
